Experimental data taken from patent US11535621B2, “Heterobicyclic amides as inhibitors of CD38” (Ribon Therapeutics, Inc., priority 2019, dated 2022).

molecular target: Human CD38 (Homo sapiens (Human), UniProt P28907); test: CD38 enzyme assay; format: biochemical; conditions: 2 nM CD38, NAD+ substrate, absorbance at 405 nm
Procedure, shortened: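 IC50 values come from fitting % inhibition against compound concentration with a 4-parameter logistic, or a 3-parameter fit with top/bottom fixed at 100/0 or Hill at 1. Inhibition is scaled between DMSO wells and positive-control wells treated with a quinolinone CD38 inhibitor.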

Human CD38, sequence (P28907 whole entry): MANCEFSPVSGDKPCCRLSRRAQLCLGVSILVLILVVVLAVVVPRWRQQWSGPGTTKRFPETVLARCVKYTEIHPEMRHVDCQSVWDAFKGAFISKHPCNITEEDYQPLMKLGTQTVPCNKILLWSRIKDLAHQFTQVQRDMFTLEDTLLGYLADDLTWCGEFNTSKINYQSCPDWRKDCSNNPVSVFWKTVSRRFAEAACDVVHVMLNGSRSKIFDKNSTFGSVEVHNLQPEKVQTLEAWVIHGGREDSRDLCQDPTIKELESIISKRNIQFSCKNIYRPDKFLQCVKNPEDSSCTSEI

IC50 | Structure (SMILES)
10 to 100 nM | CN(C)CCOc1ccc(NC(=O)c2nc(-n3ccnc3)cc3cn[nH]c23)cn1 [Example 223, N-(6-(2-(dimethylamino)ethoxy)pyridin-3-yl)-5-(1H-imidazol-1-yl)-1H-pyrazolo[3,4-c]pyridine-7-carboxamide]
10 to 100 nM | CC(C)[C@@H](O)CO[C@H]1CC[C@H](NC(=O)c2nc(-n3ccnc3)nc3cc[nH]c23)CC1 (single isomer, unassigned) [Example 119a]
10 to 100 nM | O=C(N[C@H]1CC[C@@H](C(F)(F)F)CC1)c1nc(-n2ccnc2)nc2cn[nH]c12 [Example 161]
10 to 100 nM | O=C(N[C@H]1CC[C@H](N2CC(F)(F)C2)CC1)c1nc(-n2ccnc2)nc2cn[nH]c12 [Example 255, N-((1r,4r)-4-(3,3-difluoroazetidin-1-yl)cyclohexyl)-5-(1H-imidazol-1-yl)-1H-pyrazolo[4,3-d]pyrimidine-7-carboxamide]
10 to 100 nM | O=C(NC1CCS(=O)(=O)CC1)c1nc(-n2ccnc2)nc2cc[nH]c12 [Example 61, N-(1,1-Dioxidotetrahydro-2H-thiopyran-4-yl)-2-(1H-imidazol-1-yl)-5H-pyrrolo[3,2-d]pyrimidine-4-carboxamide]
10 to 100 nM | O=C(NC1CCN(CC(F)(F)F)C1)c1nc(-n2ccnc2)nc2cc[nH]c12 (stereo not shown) [Example 68, 2-(1H-Imidazol-1-yl)-N-(1-(2,2,2-trifluoroethyl)pyrrolidin-3-yl)-5H-pyrrolo[3,2-d]pyrimidine-4-carboxamide]
10 to 100 nM | O=C(N[C@H]1CC[C@H](CNCC(F)(F)F)CC1)c1nc(-n2ccnc2)nc2cn[nH]c12 [Example 271]
< 10 nM | O=C(Nc1cccnc1)c1nc(-n2ccnc2)nc2cc[nH]c12 [Example 83, 2-(1H-Imidazol-1-yl)-N-(pyridin-3-yl)-5H-pyrrolo[3,2-d]pyrimidine-4-carboxamide]
10 to 100 nM | O=C(Nc1ccc(N2CCC(N3CCOCC3)CC2)nc1)c1nc(-n2ccnc2)nc2cc[nH]c12 [Example 158]
< 10 nM | CNC(=O)[C@H]1CC[C@H](NC(=O)c2nc(-n3ccnc3)cc3cn[nH]c23)CC1 [Example 217, 5-(1H-imidazol-1-yl)-N-((1r,4r)-4-(methylcarbamoyl)cyclohexyl)-1H-pyrazolo[3,4-c]pyridine-7-carboxamide]
10 to 100 nM | CNC(=O)[C@H]1CC[C@H](NC(=O)c2nc(-n3ccnc3)nc3cn[nH]c23)CC1 [Example 242, 5-(1H-imidazol-1-yl)-N-((1r,4r)-4-(methylcarbamoyl)cyclohexyl)-1H-pyrazolo[4,3-d]pyrimidine-7-carboxamide]
< 10 nM | O=C(Nc1cc[nH]n1)c1nc(-n2ccnc2)nc2cc[nH]c12 [Example 86, 2-(1H-Imidazol-1-yl)-N-(1H-pyrazol-3-yl)-5H-pyrrolo[3,2-d]pyrimidine-4-carboxamide]
10 to 100 nM | COCCO[C@H]1CC[C@H](NC(=O)c2nc(-n3ccnc3)cc3cn[nH]c23)CC1 [Example 16, 5-(1H-Imidazol-1-yl)-N-((1r,4r)-4-(2-methoxyethoxy)cyclohexyl)-1H-pyrazolo[3,4-c]pyridine-7-carboxamide]
< 10 nM | O=C(N[C@H]1CC[C@](O)(C(F)(F)F)CC1)c1nc(-n2ccnc2)nc2cc[nH]c12 [Example 120a, N-((1s,4s)-4-hydroxy-4-(trifluoromethyl)cyclohexyl)-2-(1H-imidazol-1-yl)-5H-pyrrolo[3,2-d]pyrimidine-4-carboxamide]
< 10 nM | O=C(Nc1ccc(OCCN2CCOCC2)nc1)c1nc(-n2ccnc2)nc2cc[nH]c12 [Example 145]
10 to 100 nM | O=C(NCc1c(F)cccc1C(F)(F)F)c1nc(-n2ccnc2)nc2cc[nH]c12 [Example 51, N-(2-Fluoro-6-(trifluoromethyl)benzyl)-2-(1H-imidazol-1-yl)-5H-pyrrolo[3,2-d]pyrimidine-4-carboxamide]
< 10 nM | N#CCO[C@H]1CC[C@H](NC(=O)c2nc(-n3ccnc3)cc3cn[nH]c23)CC1 [Example 215, N-((1r,4r)-4-(cyanomethoxy)cyclohexyl)-5-(1H-imidazol-1-yl)-1H-pyrazolo[3,4-c]pyridine-7-carboxamide]
< 10 nM | N#C[C@H]1CC[C@H](NC(=O)c2nc(-n3ccnc3)nc3cc[nH]c23)CC1 [Example 148]
100 to 1000 nM | C[C@]1(NCC(F)(F)F)CC[C@H](NC(=O)c2nc(-n3ccnc3)nc3cn[nH]c23)CC1 [Example 275, 5-(1H-imidazol-1-yl)-N-((1r,4r)-4-methyl-4-((2,2,2-trifluoroethyl)amino)cyclohexyl)-1H-pyrazolo[4,3-d]pyrimidine-7-carboxamide]
< 10 nM | O=C(N[C@H]1CC[C@H](C(F)(F)F)CC1)c1nc(-n2ccnc2)nc2ccsc12 [Example 121, 2-(1H-imidazol-1-yl)-N-((1r,4r)-4-(trifluoromethyl)cyclohexyl)thieno[3,2-d]pyrimidine-4-carboxamide]
< 10 nM | N#CCO[C@H]1CC[C@H](NC(=O)c2nc(-n3ccnc3)nc3cc[nH]c23)CC1 [Example 104, N-((1r,4r)-4-(cyanomethoxy)cyclohexyl)-2-(1H-imidazol-1-yl)-5H-pyrrolo[3,2-d]pyrimidine-4-carboxamide]

The next lines start with the compound.

Structure (SMILES) | IC50
O=C(Nc1ccc(F)c(Cl)c1)c1nc(-n2ccnc2)nc2cc[nH]c12 [Example 96, N-(3-Chloro-4-fluorophenyl)-2-(1H-imidazol-1-yl)-5H-pyrrolo[3,2-d]pyrimidine-4-carboxamide] | < 10 nM
O=C(N[C@H]1CC[C@H](NC2COC2)CC1)c1nc(-n2ccnc2)cc2cn[nH]c12 [Example 233, 5-(1H-imidazol-1-yl)-N-((1r,4r)-4-(oxetan-3-ylamino)cyclohexyl)-1H-pyrazolo[3,4-c]pyridine-7-carboxamide] | 10 to 100 nM
O=C(NCc1c(F)cccc1C(F)(F)F)c1nc(-c2cncs2)nc2cc[nH]c12 [Example 43, N-(2-Fluoro-6-(trifluoromethyl)benzyl)-2-(thiazol-5-yl)-5H-pyrrolo[3,2-d]pyrimidine-4-carboxamide] | 100 to 1000 nM
O=C(NC1CCN(C2COC2)CC1)c1nc(-n2ccnc2)nc2cc[nH]c12 [Example 76, 2-(1H-Imidazol-1-yl)-N-(1-(oxetan-3-yl)piperidin-4-yl)-5H-pyrrolo[3,2-d]pyrimidine-4-carboxamide] | 10 to 100 nM
COCCO[C@H]1CC[C@H](NC(=O)c2nc(-n3cnc(C)c3)nc3cc[nH]c23)CC1 [Example 37, N-((1r,4r)-4-(2-methoxyethoxy)cyclohexyl)-2-(4-methyl-1H-imidazol-1-yl)-5H-pyrrolo[3,2-d]pyrimidine-4-carboxamide] | > 1000 nM
COCCO[C@H]1CC[C@H](NC(=O)c2cc(-c3cncs3)cc3cc(C)[nH]c23)CC1 [Example 45, N-((1r,4r)-4-(2-Methoxyethoxy)cyclohexyl)-2-methyl-5-(thiazol-5-yl)-1H-indole-7-carboxamide] | 100 to 1000 nM
O=C(Nc1cccc(Cl)n1)c1nc(-n2ccnc2)nc2cc[nH]c12 [Example 144] | < 10 nM
CC(C)(N[C@H]1CC[C@H](NC(=O)c2nc(-n3ccnc3)nc3cc[nH]c23)CC1)C(F)F [Example 273, N-((1r,4r)-4-((1,1-difluoro-2-methylpropan-2-yl)amino)cyclohexyl)-2-(1H-imidazol-1-yl)-5H-pyrrolo[3,2-d]pyrimidine-4-carboxamide] | 10 to 100 nM
O=C(NCc1c(F)cccc1C(F)(F)F)c1nc(-c2cncs2)cc2nc[nH]c12 [Example 33, N-(2-Fluoro-6-(trifluoromethyl)benzyl)-6-(thiazol-5-yl)-3I-imidazo[4,5-c]pyridine-4-carboxamide] | > 1000 nM
O=C(Nc1ccc(Cl)cn1)c1nc(-n2ccnc2)nc2cc[nH]c12 [Example 134] | < 10 nM
O=C(NC1CCCOC1)c1nc(-n2ccnc2)nc2cc[nH]c12 (stereo not shown) [Example 27, 2-(1H-Imidazol-1-yl)-N-(tetrahydro-2H-pyran-3-yl)-5H-pyrrolo[3,2-d]pyrimidine-4-carboxamide] | < 10 nM
COCCO[C@H]1CC[C@H](NC(=O)c2nc(-c3c[nH]cn3)nc3cc[nH]c23)CC1 [Example 38, 2-(1H-Imidazol-4-yl)-N-((1r,4r)-4-(2-methoxyethoxy)cyclohexyl)-5H-pyrrolo[3,2-d]pyrimidine-4-carboxamide] | > 1000 nM
O=C(NC1CCCCC1)c1nc(-n2ccnc2)nc2cc[nH]c12 [Example 59, N-cyclohexyl-2-(1H-Imidazol-1-yl)-5H-pyrrolo[3,2-d]pyrimidine-4-carboxamide] | < 10 nM
O=C(NCc1c(F)cccc1C(F)(F)F)c1nc(-c2cncs2)nc2ccsc12 [Example 20, N-(2-Fluoro-6-(trifluoromethyl)benzyl)-2-(thiazol-5-yl)thieno [3,2-d]pyrimidine-4-carboxamide] | 100 to 1000 nM
O=C(N[C@@H]1CCNC[C@H]1F)c1nc(-n2ccnc2)nc2cc[nH]c12 [Example 123b, N-((3R,4R)-3-fluoropiperidin-4-yl)-2-(1H-imidazol-1-yl)-5H-pyrrolo[3,2-d]pyrimidine-4-carboxamide] | 100 to 1000 nM
CN(CCC(F)(F)F)[C@H]1CC[C@H](NC(=O)c2nc(-n3ccnc3)nc3cc[nH]c23)CC1 [Example 110, 2-(1H-imidazol-1-yl)-N-((1r,4r)-4-(methyl(3,3,3-trifluoropropyl)amino)cyclohexyl)-5H-pyrrolo[3,2-d]pyrimidine-4-carboxamide] | 10 to 100 nM
CC(C)(O)[C@H]1CC[C@H](NC(=O)c2nc(-n3ccnc3)cc3cn[nH]c23)CC1 [Example 109, N-((1r,4r)-4-(2-hydroxypropan-2-yl)cyclohexyl)-5-(1H-imidazol-1-yl)-1H-pyrazolo[3,4-c]pyridine-7-carboxamide] | < 10 nM
O=C(N[C@H]1CC[C@@H](C(F)(F)F)CC1)c1nc(-n2ccnc2)nc2cc[nH]c12 [Example 39a, 2-(1H-Imidazol-1-yl)-N-((1s,4s)-4-(trifluoromethyl)cyclohexyl)-5H-pyrrolo[3,2-d]pyrimidine-4-carboxamide] | < 10 nM
CC(C)(O)[C@H]1CC[C@H](NC(=O)c2nc(-n3ccnc3)nc3cn[nH]c23)CC1 [Example 182, N-((1r,4r)-4-(2-hydroxypropan-2-yl)cyclohexyl)-5-(1H-imidazol-1-yl)-1H-pyrazolo[4,3-d]pyrimidine-7-carboxamide] | < 10 nM
